Results taken from patent US9957251B2 (Takeda Pharmaceutical Company Limited, priority 2014, dated 2018).
Counter-ions that a name gives are not always drawn.

Key:
[1] = tested on: human multiple myeloma RPMI8226 cells; experiment: Inhibitory activity against human multiple myeloma RPMI8226 cell growth (CellTiter-Glo); assay type: cell-based; conditions: 1 μM of the test compound, cultured for 8 days; for inhibition at 1 µM: Homo sapiens, RPMI-8226, 192 h, read-out: Percent inhibition of RPMI8226 cell growth (%)
Outline: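 RPMI8226 cells (300/well) cultured 1 day at 37 °C, 5% CO2, then given compound at 1 μM for 8 days. ATP luminescence (CellTiter-Glo) read; percent inhibition relative to 0.1% DMSO wells.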

CDK8/CycC = biological target: T1, CDK8/CycC (Homo sapiens, UniProt P49336); experiment: CDK8 inhibitory activity (TR-FRET, Kinase Tracer-236 displacement); assay type: binding; conditions: 1 μM of the test compound; for inhibition at 1 µM: read-out: Percent inhibition of CDK8 activity (%)
T1 construct: purchased Carna Biosciences
T1 sequence (P49336 whole entry): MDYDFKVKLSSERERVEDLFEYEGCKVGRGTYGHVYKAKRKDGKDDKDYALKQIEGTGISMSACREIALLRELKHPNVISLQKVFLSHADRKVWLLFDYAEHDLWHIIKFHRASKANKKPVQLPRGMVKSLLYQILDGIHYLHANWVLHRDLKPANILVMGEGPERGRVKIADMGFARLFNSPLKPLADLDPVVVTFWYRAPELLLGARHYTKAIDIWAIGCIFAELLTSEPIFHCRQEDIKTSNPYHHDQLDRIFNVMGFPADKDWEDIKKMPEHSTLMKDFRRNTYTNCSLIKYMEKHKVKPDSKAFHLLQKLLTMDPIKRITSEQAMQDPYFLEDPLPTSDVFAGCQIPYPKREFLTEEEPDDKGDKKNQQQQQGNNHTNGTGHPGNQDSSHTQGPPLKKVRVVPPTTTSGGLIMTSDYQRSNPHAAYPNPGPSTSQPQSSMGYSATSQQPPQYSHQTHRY
T1 sequence (P24863 whole entry partner): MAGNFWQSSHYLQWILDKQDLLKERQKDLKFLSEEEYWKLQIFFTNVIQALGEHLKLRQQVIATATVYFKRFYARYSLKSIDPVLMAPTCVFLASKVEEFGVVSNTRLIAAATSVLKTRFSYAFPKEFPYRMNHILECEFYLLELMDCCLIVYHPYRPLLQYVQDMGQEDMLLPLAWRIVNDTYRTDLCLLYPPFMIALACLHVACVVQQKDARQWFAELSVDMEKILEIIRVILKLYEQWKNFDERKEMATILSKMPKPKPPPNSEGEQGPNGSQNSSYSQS
Outline: (§1)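 Binding assay measuring displacement of Kinase Tracer-236 (60 nM in the added mix) by compound, using Eu-cryptate anti-GST antibody with CDK8/CycC (84 ng/mL) or CDC2L6/CycC (87 ng/mL) solutions. After 1 h at room temperature, TR-FRET read at 615 and 665 nm (excitation 320 nm).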

CDK19 (CDC2L6/CycC) = biological target: T2, CDK19 (CDC2L6/CycC) (Homo sapiens, UniProt Q9BWU1); experiment: CDK19 inhibitory activity (TR-FRET, Kinase Tracer-236 displacement); assay type: binding; conditions: 1 μM of the test compound; for inhibition at 1 µM: read-out: Percent inhibition of CDK19 activity (%)
T2 construct: purchased Carna Biosciences
T2 sequence (Q9BWU1 whole entry): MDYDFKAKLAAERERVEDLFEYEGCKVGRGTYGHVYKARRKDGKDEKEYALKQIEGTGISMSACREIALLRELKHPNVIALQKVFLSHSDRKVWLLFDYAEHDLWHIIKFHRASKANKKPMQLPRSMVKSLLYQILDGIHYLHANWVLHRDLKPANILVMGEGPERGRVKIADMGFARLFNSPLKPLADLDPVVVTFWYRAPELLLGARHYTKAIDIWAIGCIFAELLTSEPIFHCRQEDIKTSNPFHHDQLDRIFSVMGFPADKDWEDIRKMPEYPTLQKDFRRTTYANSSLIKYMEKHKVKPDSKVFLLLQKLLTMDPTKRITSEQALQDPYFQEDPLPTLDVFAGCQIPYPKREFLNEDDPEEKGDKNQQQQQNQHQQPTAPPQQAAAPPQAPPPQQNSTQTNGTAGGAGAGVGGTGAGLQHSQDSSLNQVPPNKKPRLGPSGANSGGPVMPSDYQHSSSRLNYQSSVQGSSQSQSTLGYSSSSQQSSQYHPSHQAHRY
T2 sequence (P24863 whole entry partner): as the sequence (P24863 whole entry partner) above
Outline: as §1

Row | SMILES | Percent inhibition of RPMI8226 cell growth (%) ([1]; sulfate, 1 µM) | Percent inhibition of CDK8 activity (%) (CDK8/CycC; sulfate, 1 µM) | Percent inhibition of CDK19 activity (%) (CDK19 (CDC2L6/CycC); sulfate, 1 µM) | inhibition at 1 µM [1] | inhibition at 1 µM (CDK8/CycC) | inhibition at 1 µM (CDK19 (CDC2L6/CycC))
1 | O=C(/C=C/c1cnccc1-c1cnn(C2CC2)c1)Nc1ccc(CN2CC(F)(F)C2)cc1 [Example 373, (2E)-3-(4-(1-Cyclopropyl-1H-pyrazol-4-yl)pyridin-3-yl)-N-(4-((3,3-difluoroazetidin-1-yl)methyl)phenyl)acrylamide sulfate] | 70% | 101% | 101% | – | – | –
2 | CC(C)(F)Cc1ccc(NC(=O)/C=C/c2cncc(F)c2-c2cnn(C3CC3)c2)cc1 [Example 348, (2E)-3-(4-(1-Cyclopropyl-1H-pyrazol-4-yl)-5-fluoropyridin-3-yl)-N-(4-(2-fluoro-2-methylpropyl)phenyl)acrylamide] | – | – | – | 62% | 99% | 101%
3 | O=C(/C=C/c1cnccc1-c1cnn(C2CC2)c1)Nc1ccc(CN2CC(F)C2)cc1 [Example 365, (2E)-3-(4-(1-Cyclopropyl-1H-pyrazol-4-yl)pyridin-3-yl)-N-(4-((3-fluoroazetidin-1-yl)methyl)phenyl)acrylamide] | – | – | – | 58% | 107% | 99%
4 | Cn1cc(-c2ccncc2/C=C/C(=O)Nc2ccc3c(c2)CN(CC(F)F)C3)cn1 [Example 342, (2E)-N-(2-(2,2-difluoroethyl)-2,3-dihydro-1H-isoindol-5-yl)-3-(4-(1-methyl-1H-pyrazol-4-yl)pyridin-3-yl)acrylamide] | – | – | – | 63% | 105% | 94%
5 | Cn1cc(-c2ccncc2/C=C/C(=O)Nc2ccc(CN3CCOC(C)(C)C3)cc2)cn1 [Example 37, (2E)-N-(4-((2,2-Dimethylmorpholin-4-yl)methyl)phenyl)-3-(4-(1-methyl-1H-pyrazol-4-yl)pyridin-3-yl)acrylamide] | – | – | – | 61% | 97% | 101%
6 | CCn1cc(-c2ccncc2CCC(=O)Nc2ccc(CN3CCOCC3)cc2)cn1 [Example 99, 3-(4-(1-Ethyl-1H-pyrazol-4-yl)pyridin-3-yl)-N-(4-(morpholin-4-ylmethyl)phenyl)propanamide] | – | – | – | 62% | 90% | 85%
7 | CC(=O)N(C)Cc1cc(NC(=O)/C=C/c2cnccc2-c2cnn(C)c2)ccc1C [Example 246, (2E)-N-(3-((acetyl(methyl)amino)methyl)-4-methylphenyl)-3-(4-(1-methyl-1H-pyrazol-4-yl)pyridin-3-yl)acrylamide] | – | – | – | 49% | 95% | 93%
8 | Cn1cc(-c2ccncc2/C=C/C(=O)Nc2ccc(CN3CCC(F)(F)C3)cc2)cn1 [Example 68, (2E)-N-(4-((3,3-difluoropyrrolidin-1-yl)methyl)phenyl)-3-(4-(1-methyl-1H-pyrazol-4-yl)pyridin-3-yl)acrylamide] | – | – | – | 62% | 99% | 100%
9 | Cn1cc(-c2ccncc2/C=C/C(=O)Nc2ccc3ccncc3c2)cn1 [Example 156, (2E)-N-(isoquinolin-7-yl)-3-(4-(1-methyl-1H-pyrazol-4-yl)pyridin-3-yl)acrylamide] | – | – | – | 55% | 94% | 94%
10 | COC1CN(Cc2ccc(NC(=O)/C=C/c3cncc(F)c3-c3cnn(C4CC4)c3)cc2)C1 [Example 345, (2E)-3-(4-(1-Cyclopropyl-1H-pyrazol-4-yl)-5-fluoropyridin-3-yl)-N-(4-((3-methoxyazetidin-1-yl)methyl)phenyl)acrylamide] | – | – | – | 63% | 101% | 100%
11 | Cn1cc(-c2ccncc2/C=C/C(=O)Nc2ccc3c(ccn3C)c2)cn1 [Example 175, (2E)-N-(1-Methyl-1H-indol-5-yl)-3-(4-(1-methyl-1H-pyrazol-4-yl)pyridin-3-yl)acrylamide] | – | – | – | 55% | 98% | 99%
12 | Cn1cc(-c2ccncc2/C=C/C(=O)Nc2ccc(N3CCOCC3)c(Cl)c2)cn1 [Example 159, (2E)-N-(3-chloro-4-(morpholin-4-yl)phenyl)-3-(4-(1-methyl-1H-pyrazol-4-yl)pyridin-3-yl)acrylamide] | – | – | – | 60% | 102% | 100%
13 | COC1CN(Cc2ccc(NC(=O)/C=C/c3cncc(F)c3-c3cnn(C4CC4)c3)c(F)c2)C1 [Example 343, (2E)-3-(4-(1-Cyclopropyl-1H-pyrazol-4-yl)-5-fluoropyridin-3-yl)-N-(2-fluoro-4-((3-methoxyazetidin-1-yl)methyl)phenyl)acrylamide] | – | – | – | 63% | 103% | 96%
14 | O=C(/C=C/c1cnccc1-c1cnn(CC2(F)CC2)c1)Nc1ccc(CN2CCOCC2)cc1 [Example 288, (2E)-3-(4-(1-((1-Fluorocyclopropyl)methyl)-1H-pyrazol-4-yl)pyridin-3-yl)-N-(4-(morpholin-4-ylmethyl)phenyl)acrylamide] | – | – | – | 57% | 99% | 101%
15 | O=C(/C=C/c1cncc(F)c1-c1cnn(C2CC2)c1)Nc1ccc2c(c1)OCCO2 [Example 331, (2E)-3-(4-(1-cyclopropyl-1H-pyrazol-4-yl)-5-fluoropyridin-3-yl)-N-(2,3-dihydro-1,4-benzodioxin-6-yl)acrylamide] | – | – | – | 65% | 103% | 98%
16 | COC(C)c1ccc(NC(=O)/C=C/c2cnccc2-c2cnn(C3CC3)c2)cc1 (stereo not drawn) [Example 271, (2E)-3-(4-(1-cyclopropyl-1H-pyrazol-4-yl)pyridin-3-yl)-N-(4-(1-methoxyethyl)phenyl) acrylamide] | – | – | – | 62% | 102% | 93%
17 | Cn1cc(-c2ccncc2/C=C/C(=O)Nc2ccc3c(c2)CCCC3=O)cn1 [Example 191, (2E)-3-(4-(1-methyl-1H-pyrazol-4-yl)pyridin-3-yl)-N-(5-oxo-5,6,7,8-tetrahydronaphthalen-2-yl)acrylamide] | – | – | – | 56% | 96% | 92%
18 | O=C(/C=C/c1cnccc1-c1ccns1)Nc1ccc(CN2CCOCC2)cc1 [Example 196, (2E)-N-(4-(morpholin-4-ylmethyl)phenyl)-3-(4-(1,2-thiazol-5-yl)pyridin-3-yl)acrylamide] | – | – | – | 54% | 101% | 98%
19 | Cn1cc(-c2ccncc2/C=C/C(=O)Nc2ccc(CCN3CCOCC3)cc2)cn1 [Example 91, (2E)-3-(4-(1-Methyl-1H-pyrazol-4-yl)pyridin-3-yl)-N-(4-(2-(morpholin-4-yl)ethyl)phenyl)acrylamide] | – | – | – | 59% | 96% | 101%
20 | Cc1cc(NC(=O)/C=C/c2cnccc2-c2cnn(C)c2)ccc1CN1CCOCC1 [Example 109, (2E)-N-(3-Methyl-4-(morpholin-4-ylmethyl)phenyl)-3-(4-(1-methyl-1H-pyrazol-4-yl)pyridin-3-yl)acrylamide] | – | – | – | 58% | 96% | 98%
21 | Cn1cc(-c2ccncc2/C=C/C(=O)Nc2ccc(CN3CCOCC3)c(O)c2)cn1 [Example 148, (2E)-N-(3-Hydroxy-4-(morpholin-4-ylmethyl)phenyl)-3-(4-(1-methyl-1H-pyrazol-4-yl)pyridin-3-yl)acrylamide] | – | – | – | 54% | 97% | 99%
22 | Cn1cc(-c2c(F)cncc2/C=C/C(=O)Nc2ccc(CN3CCOCC3)cc2)cn1 [Example 238, (2E)-3-(5-fluoro-4-(1-methyl-1H-pyrazol-4-yl)pyridin-3-yl)-N-(4-(morpholin-4-ylmethyl)phenyl)acrylamide] | – | – | – | 67% | 100% | 100%
23 | CC1COCCN1Cc1ccc(NC(=O)/C=C/c2cnccc2-c2cnn(C)c2)cc1 (stereo not drawn) [Example 54, (2E)-N-(4-((3-methylmorpholin-4-yl)methyl)phenyl)-3-(4-(1-methyl-1H-pyrazol-4-yl)pyridin-3-yl)acrylamide] | – | – | – | 55% | 100% | 95%
24 | COCc1ccc(NC(=O)/C=C/c2cnccc2-c2cnn(C)c2)cc1 [Example 239, (2E)-N-(4-(methoxymethyl)phenyl)-3-(4-(1-methyl-1H-pyrazol-4-yl)pyridin-3-yl)acrylamide] | – | – | – | 65% | 100% | 100%
25 | Cn1cc(-c2c(F)cncc2/C=C/C(=O)Nc2ccc(CN3CCOCC3)cc2F)cn1 [Example 260, (2E)-3-(5-Fluoro-4-(1-methyl-1H-pyrazol-4-yl)pyridin-3-yl)-N-(2-fluoro-4-(morpholin-4-ylmethyl)phenyl)acrylamide] | – | – | – | 53% | 98% | 99%
26 | O=C(/C=C/c1cnccc1-c1cnn(Cc2ccccn2)c1)Nc1ccc(CN2CCOCC2)cc1 [Example 47, (2E)-N-(4-(morpholin-4-ylmethyl)phenyl)-3-(4-(1-(pyridin-2-ylmethyl)-1H-pyrazol-4-yl)pyridin-3-yl)acrylamide] | – | – | – | 57% | 101% | 98%
